Among the test systems are NCI-H522 lung; UACC-62 melanoma; HCT-116 colon; OVCAR-8 ovarian; PC-3 prostate; ACHN renal; MDA-MB-231 breast; SF-268 CNS; HT29 colon; LOX IMVI melanoma.
Test in all cases: NCI-60 cell line screen, 48 h

This note sets out measurements from PubChem BioAssay (NCI).

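Where inhibition never reached the appropriate level, the endpoint shown equals the highest concentration tested. Otherwise, values were interpolated linearly from a five-concentration, 48-hour dose response in 96-well plates. TGI denotes the concentration required for complete inhibition of growth.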 Where a SMILES comes first, the peptide text is derived from it. The star is where a group is joined. Boc = CC(C)(C)OC(=O)*

On to `COc1ccc(CC(O)CN2CCOCC2)cc1` (configuration not stated), for which the TGI in the experiment with NCI-H522 lung, with UACC-62 melanoma, with HCT-116 colon, with OVCAR-8 ovarian, with PC-3 prostate and with ACHN renal was above 100 µM throughout. Besides, the TGI in the experiment with MDA-MB-231 breast, in the experiment on SF-268 CNS, with HT29 colon and with LOX IMVI melanoma was above 100 µM throughout.

For `COc1ccc2nc3cc(Cl)ccc3c(NCCCNCCCNc3c4ccc(Cl)cc4nc4ccc(OC)cc34)c2c1`, the TGI in the experiment with NCI-H522 lung is 0.114 µM; with UACC-62 melanoma, 0.189 µM; with PC-3 prostate, 0.182 µM; in the experiment on ACHN renal, 0.174 µM; in the experiment with MDA-MB-231 breast, 0.0555 µM; with HT29 colon, 0.231 µM. The TGI in the experiment with LOX IMVI melanoma turned out to be 0.0145 µM.

With `O=C(CCCN1CCC2(CC1)CC(=O)N(N1CCOCC1)C2=O)c1ccccc1`, the TGI with NCI-H522 lung, with UACC-62 melanoma, in the experiment with HCT-116 colon, in the experiment on OVCAR-8 ovarian, in the experiment on PC-3 prostate and with ACHN renal was above 100 µM throughout. The TGI in the experiment on MDA-MB-231 breast, in the experiment with SF-268 CNS, in the experiment on HT29 colon and in the experiment on LOX IMVI melanoma was above 100 µM each time.

For the molecule `CCCn1c(CN(Cc2nc3ccccc3n2CCC)Cc2nc3ccccc3n2CCC)nc2ccccc21`, the TGI is above 59.9 µM with NCI-H522 lung; 18.3 µM in the experiment on UACC-62 melanoma; 13.6 µM with HCT-116 colon; above 100 µM with OVCAR-8 ovarian; 18.9 µM in the experiment on PC-3 prostate; above 100 µM in the experiment with ACHN renal. The TGI was 7.86 µM in the experiment with MDA-MB-231 breast, 27.9 µM in the experiment with SF-268 CNS, above 41.1 µM with HT29 colon and 18.9 µM with LOX IMVI melanoma.

As for `CC(C)(C)OC(=O)NCC(=O)NCC(=O)NCC(=O)NCC(=O)O` (Boc-GGGG-OH), the TGI in the experiment with NCI-H522 lung, with UACC-62 melanoma, in the experiment with HCT-116 colon, in the experiment with OVCAR-8 ovarian, with PC-3 prostate and in the experiment on ACHN renal was above 100 µM in each case. In addition, the TGI in the experiment on MDA-MB-231 breast, in the experiment with SF-268 CNS, in the experiment on HT29 colon and in the experiment with LOX IMVI melanoma was above 100 µM throughout.

`COc1nc(C#CCC(C)O)nc(OC)n1` (configuration not stated): the TGI turned out to be 34 µM in the experiment on NCI-H522 lung; 37.3 µM in the experiment on UACC-62 melanoma; 43.6 µM in the experiment with HCT-116 colon; 39.5 µM in the experiment with OVCAR-8 ovarian; 54.6 µM in the experiment on PC-3 prostate; 33.3 µM in the experiment with ACHN renal. Further, the TGI in the experiment with MDA-MB-231 breast was 52 µM; in the experiment with SF-268 CNS it was 69.6 µM; with HT29 colon, above 100 µM; in the experiment on LOX IMVI melanoma, 40.6 µM.

Turning to `O=P(c1ccccc1)(c1ccccc1)N1O[C@@H](c2ccccc2)C=C[C@H]1c1ccccc1`, the TGI stood at 24.5 µM with NCI-H522 lung; 19.5 µM in the experiment with UACC-62 melanoma; 16.1 µM in the experiment with HCT-116 colon; 32.7 µM in the experiment on OVCAR-8 ovarian; 11.7 µM in the experiment with PC-3 prostate; 21.9 µM in the experiment on ACHN renal. In addition, the TGI stood at 21.1 µM in the experiment with MDA-MB-231 breast, 26.2 µM with SF-268 CNS, 26.5 µM in the experiment with HT29 colon and 24.1 µM in the experiment on LOX IMVI melanoma.

On to `CC1(C)N=C(C(N)=O)c2ncn(CCCO)c2N1`, for which the TGI with NCI-H522 lung, in the experiment with UACC-62 melanoma, in the experiment on HCT-116 colon, in the experiment on OVCAR-8 ovarian, in the experiment on PC-3 prostate and in the experiment with ACHN renal was above 100 µM throughout. Further, the TGI in the experiment with MDA-MB-231 breast, in the experiment with SF-268 CNS, in the experiment on HT29 colon and with LOX IMVI melanoma was above 100 µM throughout.

Consider `Cc1nn(C(=O)Cc2ccccc2)c2c1C(c1ccc(O)cc1)SC(N)=N2` (configuration not stated), for which the TGI in the experiment with NCI-H522 lung, in the experiment with UACC-62 melanoma, in the experiment on HCT-116 colon, in the experiment with OVCAR-8 ovarian, with PC-3 prostate and with ACHN renal was above 100 µM in each case. For the same molecule, the TGI in the experiment on MDA-MB-231 breast, with SF-268 CNS, with HT29 colon and in the experiment on LOX IMVI melanoma was above 100 µM in each case.

Regarding `Brc1cccc(Nc2nc(-c3cccs3)nc3ccc(Br)cc23)c1`, the TGI in the experiment on NCI-H522 lung was 54.9 µM; with UACC-62 melanoma, 35.8 µM; in the experiment with HCT-116 colon, above 100 µM; with OVCAR-8 ovarian, above 100 µM; in the experiment with PC-3 prostate, above 100 µM; in the experiment with ACHN renal, 91 µM. Also, the TGI in the experiment with MDA-MB-231 breast was 64.6 µM; in the experiment with SF-268 CNS it was above 100 µM; with HT29 colon it was 53 µM; in the experiment with LOX IMVI melanoma it was above 100 µM.

In the case of `O=c1cc(N=P(c2ccccc2)(c2ccccc2)c2ccccc2)n(-c2ccccc2)c(=O)n1-c1ccccc1`, the TGI in the experiment on NCI-H522 lung was 37.3 µM; in the experiment on UACC-62 melanoma it was 39.6 µM; in the experiment on HCT-116 colon it was 42.5 µM; in the experiment with OVCAR-8 ovarian, above 100 µM; in the experiment on PC-3 prostate it was 18.6 µM; in the experiment on ACHN renal it was 45.4 µM. Further, the TGI with MDA-MB-231 breast is 78.9 µM; with SF-268 CNS, above 100 µM; in the experiment with HT29 colon, above 100 µM; in the experiment on LOX IMVI melanoma, 49.5 µM.

For `CO[C@]12CC(=O)C3(C(C[C@H]4CC5CC=C6C[C@@H](OC(C)=O)CC[C@]6(OC(C)=O)C5C[C@@]43C)C1)C1C[C@H]3[C@@H]4CC=C5C[C@@H](OC(C)=O)CC[C@]5(OC(C)=O)[C@H]4CC[C@]3(C)C12` (some centres not stated), the TGI is 31.7 µM in the experiment on NCI-H522 lung; 79 µM with UACC-62 melanoma; above 100 µM in the experiment on HCT-116 colon; above 100 µM in the experiment with OVCAR-8 ovarian; above 100 µM in the experiment on PC-3 prostate; above 100 µM in the experiment with ACHN renal. Further, the TGI was 30.2 µM in the experiment with MDA-MB-231 breast, above 100 µM in the experiment on SF-268 CNS, 29.5 µM in the experiment with HT29 colon and 53.4 µM in the experiment on LOX IMVI melanoma.

Consider `CCOC(=O)c1c(-c2ccc(OC)cc2)c(C#N)c(=S)n(C2OC(COC(C)=O)C(OC(C)=O)C(OC(C)=O)C2OC(C)=O)c1C` (configuration not stated), for which the TGI in the experiment with NCI-H522 lung, with UACC-62 melanoma, in the experiment on HCT-116 colon, in the experiment with OVCAR-8 ovarian, with PC-3 prostate and with ACHN renal was above 100 µM throughout. Moreover, the TGI with MDA-MB-231 breast, in the experiment on SF-268 CNS, with HT29 colon and with LOX IMVI melanoma was above 100 µM throughout.
